Reference: ChEMBL document CHEMBL3414462 (J Med Chem, 2015)

How the values were obtained:
Rattus norvegicus [1] = assay: Hypotensive activity in spontaneously hypertensive […] rat at 0.01 mg/kg, iv assessed as reduction in mean arterial pressure measured every 30 seconds for 7 mins following compound injection by tail-cuff method; type: functional, Artery
[2] = Half life in rat plasma; type: ADME, cell-free
Rattus norvegicus [3] = assay: Hypotensive activity in iv dosed spontaneously hypertensive […] rat assessed as reduction in mean arterial pressure measured every 30 seconds for 7 mins following compound injection by tail-cuff method; type: functional, organism-based; conditions: Artery
Rattus norvegicus [4] = assay: Hypotensive activity in spontaneously hypertensive […] rat at 1 mg/kg, iv assessed as reduction in mean arterial pressure measured every 30 seconds for 7 mins following compound injection by tail-cuff method; type: functional, Artery
Rattus norvegicus [5] = assay: Hypotensive activity in spontaneously hypertensive […] rat at 0.1 mg/kg, iv assessed as reduction in mean arterial pressure measured every 30 seconds for 7 mins following compound injection by tail-cuff method; type: functional, Artery

Structure (SMILES): CSCC[C@H](NC(=O)[C@@H]1CCCN1C(=O)CNC(=O)[C@H](CCCCN)NC(=O)[C@H](Cc1cnc[nH]1)NC(=O)[C@H](CO)NC(=O)[C@H](CC(C)C)NC(=O)[C@H](CCCNC(=N)N)NC(=O)[C@@H]1CCCN1C(=O)[C@H](CCCNC(=N)N)NC(=O)[C@@H]1CCC(=O)N1)C(=O)N1CCC[C@H]1C(=O)N[C@@H](Cc1ccccc1)C(=O)O
- Activity (Rattus norvegicus [1]): 20 mmHg
- half-life [2]: 14 min
- Activity (Rattus norvegicus [3]): Dose-dependent effect
- Activity (Rattus norvegicus [4]): 40 mmHg
- Activity (Rattus norvegicus [5]): 30 mmHg
